From patent publication US8119681B2, “2-[1-phenyl-5-hydroxy or methoxy-4alpha-methyl-hexahydrocyclopenta [ƒ]indazole-5-YL]ethyl phenyl derivatives as glucocorticoid receptor ligands” (Merck Sharp & Dohme Corp., priority 2006, dated 2012) come the findings set out here.

Where two headings read alike, the source gives them in different places.

The target of this test is T1, human GR (Homo sapiens, UniProt P04150).
T1 sequence (P04150 1-777): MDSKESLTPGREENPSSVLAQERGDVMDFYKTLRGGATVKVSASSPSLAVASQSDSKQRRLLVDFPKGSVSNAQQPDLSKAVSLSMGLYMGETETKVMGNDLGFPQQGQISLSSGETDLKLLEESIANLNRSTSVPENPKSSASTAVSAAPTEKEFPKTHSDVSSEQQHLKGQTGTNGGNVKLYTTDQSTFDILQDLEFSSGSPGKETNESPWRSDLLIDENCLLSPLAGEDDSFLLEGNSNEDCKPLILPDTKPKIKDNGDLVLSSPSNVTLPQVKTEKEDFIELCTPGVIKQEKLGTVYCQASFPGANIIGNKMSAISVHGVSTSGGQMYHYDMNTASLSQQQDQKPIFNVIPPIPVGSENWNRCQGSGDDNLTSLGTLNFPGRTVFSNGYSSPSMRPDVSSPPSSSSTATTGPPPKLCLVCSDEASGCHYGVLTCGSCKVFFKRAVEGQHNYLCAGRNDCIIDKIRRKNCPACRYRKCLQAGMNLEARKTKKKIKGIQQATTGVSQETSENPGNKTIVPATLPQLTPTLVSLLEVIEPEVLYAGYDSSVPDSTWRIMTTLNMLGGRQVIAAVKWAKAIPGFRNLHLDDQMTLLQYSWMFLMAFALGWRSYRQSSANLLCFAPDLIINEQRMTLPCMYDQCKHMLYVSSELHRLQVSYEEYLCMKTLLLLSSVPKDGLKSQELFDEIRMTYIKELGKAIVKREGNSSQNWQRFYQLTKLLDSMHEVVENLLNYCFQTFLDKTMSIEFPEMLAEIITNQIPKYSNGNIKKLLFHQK
Put plainly: Transrepression Assay (GITAR), TNFα-β-lactamase reporter gene in U937 cells. The format is cell-based. More on the design: U937 cells contain an endogenous glucocorticoid receptor (GR); endogenous in cells; host or cells: U937 cells stably transfected with the TNF-α promoter/β-lactamase reporter only. The method, boiled down:
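Reporter readout used CCF2-AM loading for 70–90 min at room temperature after overnight (~18 h, 37 °C) PMA (5 ng/ml final) and LPS (100 ng/ml final) stimulation of compound-treated (30–45 min) TNFα-β-lactamase U937 cells expressing native GR. Activity was normalised to 100 nM dexamethasone repression.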
For orientation: A reporter such as luciferase makes a cellular process visible.

[1] abbreviates: U-937, 100 nM dexamethasone = 100% activity, read-out: maximal activity in the transrepression assay.

Consider `C[C@]12Cc3cnn(-c4cccc(F)c4)c3C=C1CC[C@@]2(O)CCc1ccccc1S(N)(=O)=O` [Example 140, 2-{2-[(4αS,5R)-1-(3-fluorophenyl)-5-hydroxy-4α-methyl-1,4,4α,5,6,7-hexahydrocyclopenta[f]indazol-5-yl]ethyl}benzenesulfonamide], for which, under setting [1], the Emax was 5 to 100%.

Consider `C[C@]12Cc3cnn(-c4ccccc4)c3C=C1CC[C@@]2(O)CCc1ccccc1S(N)(=O)=O` [Example 141, 2-{2-[(4αS,5R)-5-hydroxy-4α-methyl-1-phenyl-1,4,4α,5,6,7-hexahydrocyclopenta[f]indazol-5-yl]ethyl}benzenesulfonamide], for which the Emax under setting [1] lay in the range of 5 to 100%.

As to `C[C@]12Cc3cnn(-c4ccc(F)c(F)c4)c3C=C1CC[C@@]2(O)CCc1ccccc1S(N)(=O)=O` [Example 142, 2-{2-[(4αS,5R)-1-(3,4-difluorophenyl)-5-hydroxy-4α-methyl-1,4,4α,5,6,7-hexahydrocyclopenta[f]indazol-5-yl]ethyl}benzenesulfonamide], the Emax under setting [1] was 5 to 100%.

Regarding `C[C@]12Cc3cnn(-c4ccc(F)cc4)c3C=C1CC[C@@]2(O)CCc1cccc(F)c1C#N` [Example 145, 2-fluoro-6-{2-[(4αS,5R)-1-(4-fluorophenyl)-5-hydroxy-4α-methyl-1,4,4α,5,6,7-hexahydrocyclopenta[f]indazol-5-yl]ethyl}benzonitrile], the Emax under setting [1] fell in the range of 5 to 100%.

For the compound `C[C@]12Cc3cnn(-c4ccc(F)cc4)c3C=C1CC[C@@]2(O)CCc1cc(F)ccc1C#N` [Example 146, 4-fluoro-2-{2-[(4αS,5R)-1-(4-fluorophenyl)-5-hydroxy-4α-methyl-1,4,4α,5,6,7-hexahydrocyclopenta[f]indazol-5-yl]ethyl}benzonitrile], under setting [1], the Emax lay within 5 to 100%.

Regarding `C[C@]12Cc3cnn(-c4ccc(F)cc4)c3C=C1CC[C@@]2(O)CCc1ccccc1-c1ccc[nH]1` [Example 147, (4αS,5R)-1-(4-fluorophenyl)-4α-methyl-5-{2-[2-(1H-pyrrol-2-yl)phenyl]ethyl}-1,4,4α,5,6,7-hexahydrocyclopenta[f]indazol-5-ol], the Emax under setting [1] is 5 to 100%.

For `C[C@]12Cc3cnn(-c4ccc(F)cc4)c3C=C1CC[C@@]2(O)CCc1ccccc1CO` [Example 149, (4αS,5R)-1-(4-fluorophenyl)-5-{2-[2-(hydroxymethyl)phenyl]ethyl}-4α-methyl-1,4,4α,5,6,7-hexahydrocyclopenta[f]indazol-5-ol], where the note is “U-937, read-out: maximal activity in the transrepression assay”, the Emax lay in the range of 5 to 100%.

As to `C[C@]12Cc3cnn(-c4ccc(F)cc4)c3C=C1CC[C@@]2(O)CCc1cccc(F)c1CN` [Example 153, (4αS,5R)-5-{2-[2-(aminomethyl)-3-fluorophenyl]ethyl}-1-(4-fluorophenyl)-4α-methyl-1,4,4α,5,6,7-hexahydrocyclopenta[f]indazol-5-ol], the Emax under setting [1] lay in the range of 5 to 100%.

With `C[C@]12Cc3cnn(-c4ccc(F)cc4)c3C=C1CC[C@@]2(O)CCc1cccc(F)c1C=O` [Example 154, 2-fluoro-6-{2-[(4αS,5R)-1-(4-fluorophenyl)-5-hydroxy-4α-methyl-1,4,4α,5,6,7-hexahydrocyclopenta[f]indazol-5-yl]ethyl}benzaldehyde], under setting [1], the Emax lay within 5 to 100%.

As to `C[C@]12Cc3cnn(-c4ccc(F)cc4)c3C=C1CC[C@@]2(O)CCc1cccc(F)c1C(=O)N1CC(=O)C1` [Example 155, 1-(2-fluoro-6-{2-[(4αS,5R)-1-(4-fluorophenyl)-5-hydroxy-4α-methyl-1,4,4α,5,6,7-hexahydrocyclopenta[f]indazol-5-yl]ethyl}benzoyl)azetidin-3-one], the Emax under setting [1] fell in the range of 5 to 100%.

On to `C[C@]12Cc3cnn(-c4ccc(F)cc4)c3C=C1CC[C@@]2(O)CCc1ccccc1-c1cscn1` [Example 158, (4αS,5R)-1-(4-fluorophenyl)-4α-methyl-5-{2-[2-[1,3-thiazol-4-yl)phenyl]ethyl}-1,4,4α,5,6,7-hexahydrocyclopenta[f]indazol-5-ol], for which the Emax under setting [1] was in the range of 5 to 100%.

As for `C[C@]12Cc3cnn(-c4ccc(F)cc4)c3C=C1CC[C@@]2(O)CCc1cc(C(F)(F)F)ccc1C#N` [Example 161, 2-{2-[(4αS,5R)-1-(4-fluorophenyl)-5-hydroxy-4α-methyl-1,4,4α,5,6,7-hexahydrocyclopenta[f]indazol-5-yl]ethyl}-4-(trifluoromethyl)benzonitrile], under setting [1], the Emax lay in the range of 5 to 100%.

On to `Cc1ccc(C#N)c(CC[C@]2(O)CCC3=Cc4c(cnn4-c4ccc(F)cc4)C[C@@]32C)c1` [Example 162, 2-{2-[(4αS,5R)-1-(4-fluorophenyl)-5-hydroxy-4α-methyl-1,4,4α,5,6,7-hexahydrocyclopenta[f]indazol-5-yl]ethyl}-4-methylbenzonitrile], for which the Emax under setting [1] fell in the range of 5 to 100%.

Take `C[C@]12Cc3cnn(-c4ccc(F)cc4)c3C=C1CC[C@@]2(O)CCc1ccc(C(F)(F)F)cc1C#N` [Example 164, 2-{2-[(4αS,5R)-1-(4-fluorophenyl)-5-hydroxy-4α-methyl-1,4,4α,5,6,7-hexahydrocyclopenta[f]indazol-5-yl]ethyl}-5-(trifluoromethyl)benzonitrile]: under setting [1], the Emax fell in the range of 5 to 100%.

As to `CO[C@@]1(CCc2ccccc2C(N)=O)CCC2=Cc3c(cnn3-c3ccc(F)cc3)C[C@@]21C` [Example 165, 2-{2-[(4αS,5R)-1-(4-fluorophenyl)-5-methoxy-4α-methyl-1,4,4α,5,6,7-hexahydrocyclopenta[f]indazol-5-yl]ethyl}benzamide], the Emax under setting [1] lay in the range of 5 to 100%.

As to `C[C@]12Cc3cnn(-c4ccc(F)cc4)c3C=C1CC[C@@]2(O)CCc1cc(F)ccc1C(N)=O` [Example 166, 4-fluoro-2-{2-[(4αS,5R)-1-(4-fluorophenyl)-5-hydroxy-4α-methyl-1,4,4α,5,6,7-hexahydrocyclopenta[f]indazol-5-yl]ethyl}benzamide], the Emax under setting [1] is 5 to 100%.

In the case of `C[C@]12Cc3cnn(-c4ccccc4)c3C=C1CC[C@@]2(O)CCc1cccc(F)c1C(N)=O` [Example 167, 2-fluoro-6-{2-[(4αS,5R)-5-hydroxy-4α-methyl-1-phenyl-1,4,4α,5,6,7-hexahydrocyclopenta[f]indazol-5-yl]ethyl}benzamide], the Emax under setting [1] is 5 to 100%.

As to `C[C@]12Cc3cnn(-c4ccc(F)cc4)c3C=C1CC[C@@]2(O)CCc1cccc(Cl)c1C(N)=O` [Example 169, 2-chloro-6-{2-[(4αS,5R)-1-(4-fluorophenyl)-5-hydroxy-4α-methyl-1,4,4α,5,6,7-hexahydrocyclopenta[f]indazol-5-yl]ethyl}benzamide], under setting [1], the Emax lay within 5 to 100%.

As to `C[C@]12Cc3cnn(-c4ccc(F)cc4)c3C=C1CC[C@@]2(O)CCc1cc(Cl)ccc1C(N)=O` [Example 171, 4-chloro-2-{2-[(4αS,5R)-1-(4-fluorophenyl)-5-hydroxy-4α-methyl-1,4,4α,5,6,7-hexahydrocyclopenta[f]indazol-5-yl]ethyl}benzamide], under setting [1], the Emax lay in the range of 5 to 100%.

As for `C[C@]12Cc3cnn(-c4ccc(F)cc4)c3C=C1CC[C@@]2(O)CCc1cc(C(F)(F)F)ccc1C(N)=O` [Example 173, 2-{2-[(4α6,5R)-1-(4-fluorophenyl)-5-hydroxy-4α-methyl-1,4,4α,5,6,7-hexahydrocyclopenta[f]indazol-5-yl]ethyl}-4-(trifluoromethyl)benzamide], under setting [1], the Emax lay within 5 to 100%.

On to `C[C@]12Cc3cnn(-c4ccc(F)cc4)c3C=C1CC[C@@]2(O)CCc1ccc(C(F)(F)F)cc1C(N)=O` [Example 175, 2-{2-[(4αS,5R)-1-(4-fluorophenyl)-5-hydroxy-4α-methyl-1,4,4α,5,6,7-hexahydrocyclopenta[f]indazol-5-yl]ethyl}-5-(trifluoromethyl)benzamide], for which, under setting [1], the Emax is 5 to 100%.

In the case of `C[C@]12Cc3cnn(-c4ccc(F)c(F)c4)c3C=C1CC[C@@]2(O)CCc1cccc(Cl)c1C(N)=O` [Example 176, 2-chloro-6-{2-[(4αS,5R)-1-(3,4-difluorophenyl)-5-hydroxy-4α-methyl-1,4,4α,5,6,7-hexahydrocyclopenta[f]indazol-5-yl]ethyl}benzamide], under setting [1], the Emax was in the range of 5 to 100%.

In the case of `C[C@]12Cc3cnn(-c4ccc(F)c(F)c4)c3C=C1CC[C@@]2(O)CCc1cc(Cl)ccc1C(N)=O` [Example 177, 4-chloro-2-{2-[(4αS,5R)-1-(3,4-difluorophenyl)-5-hydroxy-4α-methyl-1,4,4α,5,6,7-hexahydrocyclopenta[f]indazol-5-yl]ethyl}benzamide], the Emax under setting [1] lay in the range of 5 to 100%.

As for `C[C@]12Cc3cnn(-c4ccc(F)cc4)c3C=C1CC[C@@]2(O)CCc1cc(F)c(F)cc1C(N)=O` [Example 178, 4,5-difluoro-2-{2-[(4αS,5R)-1-(4-fluorophenyl)-5-hydroxy-4α-methyl-1,4,4α,5,6,7-hexahydrocyclopenta[f]indazol-5-yl]ethyl}benzamide], under setting [1], the Emax lay within 5 to 100%.
